Assay results as given in patent publication US11959086B2, “Dual transit peptides for targeting polypeptides” (BASF AGRO B.V., priority 2016, dated 2024).

Columns and labels:
Assay in all cases: Herbicide injury evaluation of Arabidopsis plants, greenhouse
Assay type in all cases: in vivo
[1] = tested on: Wildtype/non-transgenic Arabidopsis thaliana; conditions: scale 0-100
[2] = tested on: transgenic Arabidopsis thaliana, transgene SEQ ID NO 118; conditions: scale 0-100
[3] = tested on: transgenic Arabidopsis thaliana, transgene SEQ ID NO 120; conditions: Table 4, scale 0-100
[4] = tested on: transgenic Arabidopsis thaliana, transgene SEQ ID NO 117; conditions: Table 3, scale 0-100
[5] = tested on: transgenic Arabidopsis thaliana, transgene SEQ ID NO 121; conditions: Table 3, scale 0-100
[6] = tested on: transgenic Arabidopsis thaliana, transgene SEQ ID NO 128; conditions: Table 3, scale 0-100

SMILES: CCOC(=O)COc1ncccc1Oc1cc(-n2c(=O)cc(C(F)(F)F)n(C)c2=O)c(F)cc1Cl [S3100, ethyl [3-[2-chloro-4-fluoro-5-(1-methyl-6-trifluoromethyl-2,4-dioxo-1,2,3,4-tetrahydropyrimidin-3-yl)phenoxy]-2-pyridyloxy]acetate]
- Herbicide injury evaluation 14 days after herbicide treatment ([1]; Table 4, 50 g ai/ha + 1% MSO): 100
- Herbicide injury evaluation 14 days after herbicide treatment ([1]; Table 4, 100 g ai/ha + 1% MSO): 100
- Herbicide injury evaluation 14 days after herbicide treatment ([1]; Table 4, 200 g ai/ha + 1% MSO): 100
- Herbicide injury evaluation 14 days after herbicide treatment ([2]; Table 4, SEQ ID NO 118 Q, 50 g ai/ha + 1% MSO): 65
- Herbicide injury evaluation 14 days after herbicide treatment ([2]; Table 4, SEQ ID NO 118 Q, 100 g ai/ha + 1% MSO): 65
- Herbicide injury evaluation 14 days after herbicide treatment ([2]; Table 4, SEQ ID NO 118 Q, 200 g ai/ha + 1% MSO): 65
- Herbicide injury evaluation 14 days after herbicide treatment ([2]; Table 4, SEQ ID NO 118 R, 50 g ai/ha + 1% MSO): 60
- Herbicide injury evaluation 14 days after herbicide treatment ([2]; Table 4, SEQ ID NO 118 R, 100 g ai/ha + 1% MSO): 63
- Herbicide injury evaluation 14 days after herbicide treatment ([2]; Table 4, SEQ ID NO 118 R, 200 g ai/ha + 1% MSO): 53
- Herbicide injury evaluation 14 days after herbicide treatment ([3]; SEQ ID NO 120 J, 50 g ai/ha + 1% MSO): 75
- Herbicide injury evaluation 14 days after herbicide treatment ([3]; SEQ ID NO 120 J, 100 g ai/ha + 1% MSO): 95
- Herbicide injury evaluation 14 days after herbicide treatment ([3]; SEQ ID NO 120 J, 200 g ai/ha + 1% MSO): 80
- Herbicide injury evaluation 14 days after herbicide treatment ([3]; SEQ ID NO 120 M, 50 g ai/ha + 1% MSO): 97
- Herbicide injury evaluation 14 days after herbicide treatment ([3]; SEQ ID NO 120 M, 100 g ai/ha + 1% MSO): 85
- Herbicide injury evaluation 14 days after herbicide treatment ([3]; SEQ ID NO 120 M, 200 g ai/ha + 1% MSO): 89

SMILES: Cc1nn(-c2cc(NS(C)(=O)=O)c(Cl)cc2Cl)c(=O)n1C(F)F [Sulfentrazone, sulfentrazone]
- Herbicide injury evaluation 14 days after herbicide treatment ([1]; Table 3, 280 g ai/ha + 1% MSO): 100
- Herbicide injury evaluation 14 days after herbicide treatment ([1]; Table 3, 560 g ai/ha + 1% MSO): 100
- Herbicide injury evaluation 14 days after herbicide treatment ([1]; Table 3, 1120 g ai/ha + 1% MSO): 100
- Herbicide injury evaluation 14 days after herbicide treatment ([4]; SEQ ID NO 117 C, 280 g ai/ha + 1% MSO): 83
- Herbicide injury evaluation 14 days after herbicide treatment ([4]; SEQ ID NO 117 C, 560 g ai/ha + 1% MSO): 99
- Herbicide injury evaluation 14 days after herbicide treatment ([4]; SEQ ID NO 117 C, 1120 g ai/ha + 1% MSO): 98
- Herbicide injury evaluation 14 days after herbicide treatment ([4]; SEQ ID NO 117 I, 280 g ai/ha + 1% MSO): 89
- Herbicide injury evaluation 14 days after herbicide treatment ([4]; SEQ ID NO 117 I, 560 g ai/ha + 1% MSO): 85
- Herbicide injury evaluation 14 days after herbicide treatment ([4]; SEQ ID NO 117 I, 1120 g ai/ha + 1% MSO): 98
- Herbicide injury evaluation 14 days after herbicide treatment ([2]; Table 3, SEQ ID NO 118 Q, 280 g ai/ha + 1% MSO): 25
- Herbicide injury evaluation 14 days after herbicide treatment ([2]; Table 3, SEQ ID NO 118 Q, 560 g ai/ha + 1% MSO): 40
- Herbicide injury evaluation 14 days after herbicide treatment ([2]; Table 3, SEQ ID NO 118 Q, 1120 g ai/ha + 1% MSO): 48
- Herbicide injury evaluation 14 days after herbicide treatment ([2]; Table 3, SEQ ID NO 118 R, 280 g ai/ha + 1% MSO): 15
- Herbicide injury evaluation 14 days after herbicide treatment ([2]; Table 3, SEQ ID NO 118 R, 560 g ai/ha + 1% MSO): 18
- Herbicide injury evaluation 14 days after herbicide treatment ([2]; Table 3, SEQ ID NO 118 R, 1120 g ai/ha + 1% MSO): 40
- Herbicide injury evaluation 14 days after herbicide treatment ([5]; SEQ ID NO 121 G, 280 g ai/ha + 1% MSO): 100
- Herbicide injury evaluation 14 days after herbicide treatment ([5]; SEQ ID NO 121 G, 560 g ai/ha + 1% MSO): 100
- Herbicide injury evaluation 14 days after herbicide treatment ([5]; SEQ ID NO 121 G, 1120 g ai/ha + 1% MSO): 100
- Herbicide injury evaluation 14 days after herbicide treatment ([5]; SEQ ID NO 121 H, 280 g ai/ha + 1% MSO): 100
- Herbicide injury evaluation 14 days after herbicide treatment ([5]; SEQ ID NO 121 H, 560 g ai/ha + 1% MSO): 100
- Herbicide injury evaluation 14 days after herbicide treatment ([5]; SEQ ID NO 121 H, 1120 g ai/ha + 1% MSO): 100
- Herbicide injury evaluation 14 days after herbicide treatment ([6]; SEQ ID NO 128 D, 280 g ai/ha + 1% MSO): 73
- Herbicide injury evaluation 14 days after herbicide treatment ([6]; SEQ ID NO 128 D, 560 g ai/ha + 1% MSO): 83
- Herbicide injury evaluation 14 days after herbicide treatment ([6]; SEQ ID NO 128 D, 1120 g ai/ha + 1% MSO): 95
- Herbicide injury evaluation 14 days after herbicide treatment ([6]; SEQ ID NO 128 E, 280 g ai/ha + 1% MSO): 70
- Herbicide injury evaluation 14 days after herbicide treatment ([6]; SEQ ID NO 128 E, 560 g ai/ha + 1% MSO): 93
- Herbicide injury evaluation 14 days after herbicide treatment ([6]; SEQ ID NO 128 E, 1120 g ai/ha + 1% MSO): 95
